From patent publication US20240067668A1, “HETEROARYL DERIVATIVE COMPOUND AND USE THEREOF” (VORONOI INC., priority 2020, published 2024)

Experiments:
[1] = target: EGFR Del19/T790M/C797S (Homo sapiens, UniProt P00533, C797S/T790M, form not given); assay: Enzyme IC50, EGFR Del19/T790M/C797S; assay type: biochemical
[2] = tested on: BaF3-EGFR (WT) cells; assay: Inhibitory activity on Ba/F3 cell proliferation (CellTiter-Glo, 72 hours); assay type: cell-based; conditions: Ba/F3 cells expressing EGFR WT
Protocol: (§1) The following experiments were performed to evaluate the inhibitory activity of the compound represented by Chemical Formula 1 according to the present invention on the proliferation of Ba/F3 cells expressing EGFR mutants.
(§2) BaF3-EGFR (WT) and BaF3-EGFR (Del19/T790M/C797S) cells were seeded in a clear bottom white 96-well plate at a density of 3×10^3/100 μl/well, and then 0.5 μl/well of the culture medium, containing the compounds at 12 concentrations (0.00001-2 mM) serially diluted in 3 folds and the DMSO control, was added to a final concentration of 0.00005-10 μM, followed by culturing in a 37° C. CO2 incubator for 72 hours. After 72 hours, the plates treated with the compounds were taken out, treated with 100 μl/well of CellTiter-Glo® 2.0 Assay (Promega) solution, and mixed well. After mixing well at room temperature for about 10 minutes, […] was measured using a microplate reader. As to Data, GI50 (μM) values were calculated using GraphPad Prism 8.3.0 (GraphPad software Inc., San Diego) as percentages in proportion to vehicle-based treated cells. The result values were calculated as a cell growth rate (%) compared to the control group. A graph was created using the GraphPad Prism version 5.0 program, and GI50 (μM) values were calculated.

[3] = tested on: BaF3-EGFR (Del19/T790M/C797S) cells; assay: as above; assay type: cell-based; conditions: Ba/F3 cells expressing EGFR Del19/T790M/C797S
Protocol: as §1, §2

Sequence of EGFR Del19/T790M/C797S (P00533 25-1210 T790M/C797S, form open): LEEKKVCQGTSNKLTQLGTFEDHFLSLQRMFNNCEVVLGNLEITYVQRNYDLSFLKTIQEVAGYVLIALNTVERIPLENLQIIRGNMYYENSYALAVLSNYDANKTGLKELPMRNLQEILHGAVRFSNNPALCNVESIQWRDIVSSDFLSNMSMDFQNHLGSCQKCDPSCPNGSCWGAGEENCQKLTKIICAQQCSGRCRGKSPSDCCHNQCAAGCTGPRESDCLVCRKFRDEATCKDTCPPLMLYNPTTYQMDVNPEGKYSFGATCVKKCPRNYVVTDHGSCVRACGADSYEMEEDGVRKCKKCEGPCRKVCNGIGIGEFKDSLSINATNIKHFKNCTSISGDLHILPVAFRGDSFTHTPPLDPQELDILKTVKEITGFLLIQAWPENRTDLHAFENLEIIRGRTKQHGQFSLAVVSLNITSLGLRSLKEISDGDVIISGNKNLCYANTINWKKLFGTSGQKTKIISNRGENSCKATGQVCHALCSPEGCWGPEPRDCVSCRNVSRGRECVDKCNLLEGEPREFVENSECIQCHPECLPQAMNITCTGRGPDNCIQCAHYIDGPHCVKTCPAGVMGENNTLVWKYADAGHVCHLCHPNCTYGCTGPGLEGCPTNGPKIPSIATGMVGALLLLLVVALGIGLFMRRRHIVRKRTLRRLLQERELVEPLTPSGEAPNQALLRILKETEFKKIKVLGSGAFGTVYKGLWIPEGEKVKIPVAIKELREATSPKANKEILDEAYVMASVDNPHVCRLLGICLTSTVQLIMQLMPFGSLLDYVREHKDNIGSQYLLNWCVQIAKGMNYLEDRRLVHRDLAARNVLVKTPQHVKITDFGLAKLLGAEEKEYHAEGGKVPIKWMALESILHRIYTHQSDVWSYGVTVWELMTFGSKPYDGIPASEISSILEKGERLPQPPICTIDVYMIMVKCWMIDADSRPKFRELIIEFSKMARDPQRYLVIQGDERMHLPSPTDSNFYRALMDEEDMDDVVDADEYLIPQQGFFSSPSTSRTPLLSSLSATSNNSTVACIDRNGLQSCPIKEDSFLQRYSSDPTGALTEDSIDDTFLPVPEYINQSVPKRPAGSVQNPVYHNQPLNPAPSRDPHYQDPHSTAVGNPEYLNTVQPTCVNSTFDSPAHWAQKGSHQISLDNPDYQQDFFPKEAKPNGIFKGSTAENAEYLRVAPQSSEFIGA

IC50 [1] [µM]	GI50 [2] [µM]	GI50 [3] [µM]	SMILES
≤ 0.05	> 0.1	≤ 0.05	COc1cc(N2CCC(N3CCN(C)CC3)CC2)c(Cl)cc1Nc1nc(Nc2ccc3nccnc3c2P(C)(C)=O)c2cc[nH]c2n1 [Example 56, (6-((2-((5-chloro-2-methoxy-4-(4-(4-methylpiperazin-1-yl)piperidin-1-yl)phenyl)amino)-7H-pyrrolo[2,3-d]pyrimidin-4-yl)amino)quinoxalin-5-yl)dimethyl-phosphine oxide]
≤ 0.05	> 0.1	≤ 0.05	COc1cc(N2C[C@@H]3C[C@H]2CO3)c(-c2cnn(C)c2)cc1Nc1nc(Nc2ccc3nccnc3c2P(C)(C)=O)c2cc[nH]c2n1 [Example 26, (6-((2-((4-((1s,4S)-2-oxa-5-azabicyclo [2.2.1]heptan-5-yl)-2-methoxy-5-(1-methyl-1H-pyrazol-4-yl)phenyl)amino)-7H-pyrrolo[2,3-d]pyrimidin-4-yl)amino)quinoxalin-5-yl)dimethyl-phosphine oxide]
> 0.1	> 0.1	≤ 0.05	COc1cc(N2CCC3(CCN(C(=O)C4(F)CC4)CC3)CC2)c(-c2cnn(C)c2)cc1Nc1nc(Nc2ccc3nccnc3c2P(C)(C)=O)c2cc[nH]c2n1 [Example 111, (9-(4-((4-((5-(dimethyl-phosphoryl)quinoxalin-6-yl)amino)-7H-pyrrolo[2,3-d]pyrimidin-2-yl)amino)-5-methoxy-2-(1-methyl-1H-pyrazol-4-yl)phenyl)-3,9-diazaspiro[5.5]undecan-3-yl)(1-fluorocyclo-propyl) methanone]
≤ 0.05	> 0.1	> 0.1	COc1cc(F)c(-c2cnn(C)c2)cc1Nc1nc(Nc2ccc3nccnc3c2P(C)(C)=O)c2cc[nH]c2n1 [Example 31, (6-((2-((4-fluoro-2-methoxy-5-(1-methyl-1H-pyrazol-4-yl)phenyl)amino)-7H-pyrrolo[2,3-d]pyrimidin-4-yl)amino)quinoxalin-5-yl)dimethyl-phosphine oxide]
≤ 0.05	> 0.1	≤ 0.05	COc1cc(N2CCN(C)CC2)c(-c2cnn(C)c2)cc1Nc1nc(Nc2ccc3nccnc3c2P(C)(C)=O)c2cc[nH]c2n1 [Example 21, (6-((2-((2-methoxy-5-(1-methyl-1H-pyrazol-4-yl)-4-(4-methylpiperazin-1-yl)phenyl)amino)-7H-pyrrolo[2,3-d]pyrimidin-4-yl)amino)quinoxalin-5-yl) dimethyl-phosphine oxide]
≤ 0.05	> 0.1	≤ 0.05	Cn1cc(-c2cc(Nc3nc(Nc4ccc5nccnc5c4P(C)(C)=O)c4cc[nH]c4n3)c(OCC(F)(F)F)cc2N2CCOCC2)cn1 [Example 2, dimethyl (6-((2-((5-(1-methyl-1H-pyrazol-4-yl)-4-morpholino-2-(2,2,2-trifluoroethoxy)phenyl)amino)-7H-pyrrolo[2,3-d]pyrimidin-4-yl)amino)quinoxalin-5-yl) phosphine oxide]
≤ 0.05	> 0.1	≤ 0.05	Cc1cc(Nc2nc(Nc3ccc4nccnc4c3P(C)(C)=O)c3cc[nH]c3n2)c(OCC(F)(F)F)cc1N1CCC(N2CCN(C)CC2)CC1 [Example 8, dimethyl (6-((2-((5-methyl-4-(4-(4-methylpiperazin-1-yl)piperidin-1-yl)-2-(2,2,2-trifluoroethoxy)phenyl)amino)-7H-pyrrolo[2,3-d]pyrimidin-4-yl)amino)quinoxalin-5-yl)phosphine oxide]
≤ 0.05	> 0.1	> 0.1	COc1cc(N2CCC(N3CCN(C)CC3)CC2)c(C)cc1Nc1nc(Nc2ccc3nccnc3c2P(C)(C)=O)c2nc[nH]c2n1 [Example 104, (6-((2-((2-methoxy-5-methyl-4-(4-(4-methylpiperazin-1-yl)piperidin-1-yl)phenyl)amino)-9H-purin-6-yl)amino)quinoxalin-5-yl)dimethyl-phosphine oxide]
≤ 0.05	> 0.1	0.05 to 0.1	CN1CCN(c2cc(OCC(F)(F)F)c(Nc3nc(Nc4ccc5nccnc5c4P(C)(C)=O)c4cc[nH]c4n3)cc2-c2cnn(C)c2)CC1 [Example 1, dimethyl (6-((2-((5-(1-methyl-1H-pyrazol-4-yl)-4-(4-methylpiperazin-1-yl)-2-(2,2,2-trifluoroethoxy)phenyl)amino)-7H-pyrrolo[2,3-d]pyrimidin-4-yl)amino)quinoxalin-5-yl)phosphine oxide]
≤ 0.05	> 0.1	> 0.1	Cc1cc(Nc2nc(Nc3ccc4nccnc4c3P(C)(C)=O)c3cc[nH]c3n2)c2c(c1N1CCOCC1)CCO2 [Example 122, dimethyl (6-((2-((5-methyl-4-morpholino-2,3-dihydrobenzo-furan-7-yl)amino)-7H-pyrrolo[2,3-d]pyrimidin-4-yl)amino)quinoxalin-5-yl)phosphine oxide]
≤ 0.05	≤ 0.05	> 0.1	C=CC(=O)Nc1cc(Nc2nc(Nc3ccc4nccnc4c3P(C)(C)=O)c3cc[nH]c3n2)c2c(c1N1CCC(N3CCN(C4CC4)CC3)CC1)OCCO2 [Example 133, N-(5-(4-(4-cyclopropyl-piperazin-1-yl)piperidin-1-yl)-8-((4-((5-(dimethyl-phosphoryl)quinoxalin-6-yl)amino)-7H-pyrrolo[2,3-d]pyrimidin-2-yl)amino)-2,3-dihydrobenzo [b][1,4]dioxin-6-yl)acrylamide]
≤ 0.05	> 0.1	> 0.1	Cc1cc(Nc2nc(Nc3cnc4ccccc4c3P(C)(C)=O)c3cc[nH]c3n2)c(OCC(F)(F)F)cc1N1CCC(N2CCN(C)CC2)CC1 [Example 13, dimethyl (3-((2-((5-methyl-4-(4-(4-methylpiperazin-1-yl)piperidin-1-yl)-2-(2,2,2-trifluoroethoxy)phenyl)amino)-7H-pyrrolo[2,3-d]pyrimidin-4-yl)amino)quinolin-4-yl)phosphine oxide]
≤ 0.05	> 0.1	> 0.1	Cc1cc(Nc2nc(Nc3ccc4nccnc4c3P(C)(C)=O)c3cc[nH]c3n2)c(OCC(F)(F)F)cc1N1CCN(C)CC1 [Example 9, dimethyl (6-((2-((5-methyl-4-(4-methylpiperazin-1-yl)-2-(2,2,2-trifluoroethoxy)phenyl)amino)-7H-pyrrolo[2,3-d]pyrimidin-4-yl)amino)quinoxalin-5-yl)phosphine oxide]
≤ 0.05	> 0.1	> 0.1	COc1cc(N2CCC(N3CCN(C)CC3)CC2)c(-c2cnn(C)c2)cc1Nc1nc(Nc2ccc3nccnc3c2P(C)(C)=O)c2nc[nH]c2n1 [Example 105, (6-((2-((2-methoxy-5-(1-methyl-1H-pyrazol-4-yl)-4-(4-(4-methylpiperazin-1-yl)piperidin-1-yl)phenyl)amino)-9H-purin-6-yl)amino)quinoxalin-5-yl)dimethyl-phosphine oxide]
≤ 0.05	> 0.1	≤ 0.05	COc1cc(N2C[C@@H](C)O[C@@H](C)C2)c(-c2cnn(C)c2)cc1Nc1nc(Nc2ccc3nccnc3c2P(C)(C)=O)c2cc[nH]c2n1 [Example 23, (6-((2-((4-((2s, 6R)-2,6-dimethyl-morpholino)-2-methoxy-5-(1-methyl-1H-pyrazol-4-yl)phenyl)amino)-7H-pyrrolo[2,3-d]pyrimidin-4-yl)amino)quinoxalin-5-yl)dimethyl-phosphine oxide]
≤ 0.05	> 0.1	> 0.1	C=Cc1cc(Nc2nc(Nc3ccc4nccnc4c3P(C)(C)=O)c3cc[nH]c3n2)c(OC)cc1N1CCN(C)CC1 [Example 82, (6-((2-((2-methoxy-4-(4-methylpiperazin-1-yl)-5-vinylphenyl)amino)-7H-pyrrolo[2,3-d]pyrimidin-4-yl)amino)quinoxalin-5-yl)dimethyl-phosphine oxide]
–	> 0.1	> 0.1	Cc1cc(Nc2nc(Nc3ccc4nccnc4c3P(C)(C)=O)c3cc[nH]c3n2)c(OCC(F)(F)F)cc1N1CCC(N2CCOCC2)CC1 [Example 12, dimethyl (6-((2-((5-methyl-4-(4-morpholino-piperidin-1-yl)-2-(2,2,2-trifluoroethoxy)phenyl)amino)-7H-pyrrolo[2,3-d]pyrimidin-4-yl)amino)quinoxalin-5-yl) phosphineoxide]
–	0.05 to 0.1	0.05 to 0.1	COc1cc(N2CCC(N3CCN(C)CC3)CC2)ccc1Nc1nc(Nc2ccc3nccnc3c2P(C)(C)=O)c2cc[nH]c2n1 [Example 57, (6-((2-((2-methoxy-4-(4-(4-methylpiperazin-1-yl)piperidin-1-yl)phenyl)amino)-7H-pyrrolo[2,3-d]pyrimidin-4-yl)amino)quinoxalin-5-yl)dimethyl-phosphine oxide]
–	> 0.1	> 0.1	CN1CCN(c2ccc(Nc3nc(Nc4ccc5nccnc5c4P(C)(C)=O)c4cc[nH]c4n3)c(OCC(F)(F)F)c2)CC1 [Example 7, dimethyl (6-((2-((4-(4-methylpiperazin-1-yl)-2-(2,2,2-trifluoroethoxy)phenyl)amino)-7H-pyrrolo[2,3-d]pyrimidin-4-yl)amino)quinoxalin-5-yl)phosphine oxide]
